Paper PMC6430037 (Heliyon, 2019)

Key:
[1] = test system: BDZ-bs of the GABAA receptor; assay: [3H]-FNZ radioligand binding assay; conditions: [3H]-FNZ displacement, compound at 300 μM, rat cerebral cortex membranes
mice [2] = assay: Spontaneous locomotor activity; format: in vivo; conditions: 30 mg/kg i.p., 5 min counts
hMAO A = conditions: cited from earlier work
μ-opioid receptor [3] = molecular target: T1, μ-opioid receptor (Rattus norvegicus, UniProt P33535); conditions: read-out: μ-opioid Ki; [3H]-DAMGO, rat forebrain membranes; cited from earlier work
Cell viability assay = format: cell-based, human; conditions: human, SH-SY5Y cells
SH-SY5Y cells = assay: Cell viability assay; format: cell-based, human; conditions: 48 h, SH-SY5Y
μ-opioid receptor [4] = molecular target: T1, μ-opioid receptor; assay: [3H]-DAMGO radioligand binding assay; conditions: read-out: μ-opioid Binding inhibition (%) [300 μM]
[5] = PAMPA-BBB permeability assay; format: in vitro ADME
hMAO B = conditions: read-out: IC50 hMAO B; cited from earlier work
5-HT1A receptor = molecular target: T2, 5-HT1A receptor (Rattus norvegicus, UniProt P19327); assay: [3H]-8-OH-DPAT radioligand binding assay
T2 sequence (P19327 1-422): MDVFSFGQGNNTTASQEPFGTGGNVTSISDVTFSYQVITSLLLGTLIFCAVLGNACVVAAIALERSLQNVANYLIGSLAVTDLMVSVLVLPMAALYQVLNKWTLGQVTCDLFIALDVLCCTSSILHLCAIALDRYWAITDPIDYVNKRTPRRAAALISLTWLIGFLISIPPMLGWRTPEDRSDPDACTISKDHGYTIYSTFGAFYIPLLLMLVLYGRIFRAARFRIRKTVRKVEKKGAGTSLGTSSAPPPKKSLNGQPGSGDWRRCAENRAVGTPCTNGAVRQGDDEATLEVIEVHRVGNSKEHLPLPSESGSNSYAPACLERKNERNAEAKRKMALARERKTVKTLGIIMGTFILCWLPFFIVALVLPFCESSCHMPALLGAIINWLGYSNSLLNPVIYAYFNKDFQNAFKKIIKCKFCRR

mice [6] = assay: Tail suspension test; format: in vivo; conditions: 30 min before
rats = conditions: cited from earlier work
[7] = molecular target: benzodiazepine binding site (BDZ-bs) of the GABAA receptor; conditions: read-out: Ki for the BDZ-bs of the GABAA receptor; cited from earlier work

T1 sequence (P33535 whole entry): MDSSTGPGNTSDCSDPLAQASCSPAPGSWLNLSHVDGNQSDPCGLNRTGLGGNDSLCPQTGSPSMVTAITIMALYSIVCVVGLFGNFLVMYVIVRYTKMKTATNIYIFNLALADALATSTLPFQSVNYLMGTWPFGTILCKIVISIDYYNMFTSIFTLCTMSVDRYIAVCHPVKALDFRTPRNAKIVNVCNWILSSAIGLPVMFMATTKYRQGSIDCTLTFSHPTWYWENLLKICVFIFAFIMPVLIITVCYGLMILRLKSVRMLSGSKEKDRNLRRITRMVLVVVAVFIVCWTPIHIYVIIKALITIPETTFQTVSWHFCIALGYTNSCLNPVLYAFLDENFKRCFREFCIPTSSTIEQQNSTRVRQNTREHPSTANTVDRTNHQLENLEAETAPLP

| BDZ-bs Binding inhibition (%) [300 μM] [1] | spontaneous locomotor activity vs VEH (mice [2]) | inhibition at 300 µM (μ-opioid receptor [4]) | Papp at 16 h, 50 µM ([5]; PAMPA, pH 7.4) | Ki (5-HT1A receptor) | inhibition at 300 µM (5-HT1A receptor; read-out: 5-HT1A Binding Inhibition (%) [300 μM]) | SMILES | effect on hMAO A (hMAO A) | Ki (μ-opioid receptor [3]) | viability at 48 h, 20 µM (Cell viability assay) | concentration up to which cell viability was not affected (SH-SY5Y cells) | BBB penetration estimation Prediction ([5]; PAMPA-BBB binning by -logPe) | IC50 (hMAO B) | immobility time vs VEH (mice [6]; 10 mg/kg i.p.) | immobility time vs VEH (mice [6]; 30 mg/kg i.p.) | effect in the plus-maze test (rats) | Ki [7] |
| --- | --- | --- | --- | --- | --- | --- | --- | --- | --- | --- | --- | --- | --- | --- | --- | --- |
| ++++ (inhibition >90% (++++)) | significant increase | 60 to 90% | 26.3 ×10⁻⁶ cm/s | 20.8 ± 1.5 µM | 60 to 90% | O=C(/C=C/c1ccccc1)c1ccccc1 [Compound 1, Chalcone] | no effect | 28.2 ± 9.9 µM | 95.9% | 75 µM | CNS+ (CNS+, -logPe < 5.6, high permeability) | 1.41 ± 0.07 µM | significantly reduced | significantly reduced | – | – |
| – | – | – | – | – | – | O=C(/C=C/c1ccc(O)cc1)c1ccc(O)cc1O [isoliquiritigenin, 2′,4′,4-trihydroxychalcone] | – | – | – | – | – | – | – | – | anxiolytic-like effect | 0.45 µM |
